Source: patent US12152020B2, “Pesticidally active azole-amide compounds” (SYNGENTA PARTICIPATIONS AG, priority 2018, dated 2024)

How the values were obtained:
Type in all cases: in vivo
[1] = tested on: Plutella xylostella (Diamondback Moth); assay: Example B14: Plutella xylostella, artificial diet in 96-well plates, eggs; settings: 216 h, application rate of 500 ppm, 9 days after infestation
Description: Example B14: Plutella xylostella (Diamondback Moth)
96-well microtiter plates containing artificial diet were treated with aqueous test solutions, prepared from 10′000 ppm DMSO stock solutions, by a liquid handling robot. After drying, eggs (˜30 per well) were infested onto a netted lid which was suspended above the diet. The eggs hatch and L1 larvae move down to the diet. The samples were assessed for mortality 9 days after infestation.
The following compounds gave an effect of at least 80% average mortality at an application rate of 500 ppm: • P2, P3, P5, P6, P7, P9, P15, P16, P17, P18, P20, P22, P24, P25, P30, P31, P32, P33, P38.

[2] = tested on: Diabrotica balteata (Corn Root Worm); assay: Example B1: Diabrotica balteata, maize sprouts sprayed, L2 larvae; settings: 96 h, application rate of 200 ppm, 4 days after infestation, in comparison to untreated samples, read-out: effect in at least one of the two categories (mortality or growth inhibition)
Description: Example B1: Diabrotica balteata (Corn Root Worm)
Maize sprouts placed onto an agar layer in 24-well microtiter plates were treated with aqueous test solutions prepared from 10′000 ppm DMSO stock solutions by spraying. After drying, the plates were infested with L2 larvae (6 to 10 per well). The samples were assessed for mortality and growth inhibition in comparison to untreated samples 4 days after infestation.
The following compounds gave an effect of at least 80% in at least one of the two categories (mortality or growth inhibition) at an application rate of 200 ppm: • P2, P3, P4, P5, P6, P7, P8, P14, P15, P16, P17, P18, P19, P20, P21, P22, P23, P24, P25, P27, P28, P29, P30, P31, P32, P33, P34, P35

[3] = tested on: Plutella xylostella (Diamond Back Moth); assay: Example B5: Plutella xylostella, artificial diet in 24-well plates, eggs; settings: 192 h, application rate of 200 ppm, 8 days after infestation, in comparison to untreated samples, read-out: effect in at least one of the two categories (mortality or growth inhibition)
Description: Example B5: Plutella xylostella (Diamond Back Moth)
24-well microtiter plates with artificial diet were treated with aqueous test solutions prepared from 10′000 ppm DMSO stock solutions by pipetting. After drying, Plutella eggs were pipetted through a plastic stencil onto a gel blotting paper and the plate was closed with it. The samples were assessed for mortality and growth inhibition in comparison to untreated samples 8 days after infestation.
The following compounds gave an effect of at least 80% in at least one of the two categories (mortality or growth inhibition) at an application rate of 200 ppm: • P1, P2, P3, P4, P5, P7, P8, P9, P14, P15, P16, P17, P18, P21, P22, P23, P24, P25, P27, P28, P29, P30, P31, P32, P33, P34, P35, P36

[4] = tested on: Chilo suppressalis (Striped Rice Stemborer); assay: Example B4: Chilo suppressalis, artificial diet, L2 larvae; settings: 144 h, application rate of 200 ppm, 6 days after infestation, in comparison to untreated samples, read-out: control in at least one of the categories (mortality, anti-feedant effect, or growth inhibition)
Description: Example B4: Chilo suppressalis (Striped Rice Stemborer)
24-well microtiter plates with artificial diet were treated with aqueous test solutions prepared from 10′000 ppm DMSO stock solutions by pipetting. After drying, the plates were infested with L2 larvae (6-8 per well). The samples were assessed for mortality, anti-feeding effect, and growth inhibition in comparison to untreated samples 6 days after infestation. Control of Chilo suppressalis by a test sample is given when at least one of the categories mortality, anti-feedant effect, and growth inhibition is higher than the untreated sample.

[5] = tested on: Myzus persicae (Green Peach Aphid); assay: Example B13: Myzus persicae, sucrose solution under Parafilm, 96-well; settings: 120 h, application rate of 50 ppm, 5 days after infestation
From the text: Example B13: Myzus persicae (Green Peach Aphid)
Test compounds prepared from 10′000 ppm DMSO stock solutions were applied by a liquid handling robot into 96-well microtiter plates and mixed with a sucrose solution. Parafilm was stretched over the 96-well microtiter plate and a plastic stencil with 96 holes was placed onto the plate. Aphids were sieved into the wells directly onto the Parafilm. The infested plates were closed with a gel blotting card and a second plastic stencil and then turned upside down. The samples were assessed for mortality 5 days after infestation.

[6] = tested on: Spodoptera littoralis (Egyptian Cotton Leaf Worm); assay: Example B9: Spodoptera littoralis, cotton leaf discs sprayed, L1 larvae; settings: foliar, 72 h, application rate of 200 ppm, five L1 larvae, 3 days after infestation, in comparison to untreated samples, read-out: control in at least one of the categories (mortality, anti-feedant effect, or growth inhibition)
Description: Example B9: Spodoptera littoralis (Egyptian Cotton Leaf Worm)
Cotton leaf discs were placed onto agar in 24-well microtiter plates and sprayed with aqueous test solutions prepared from 10′000 ppm DMSO stock solutions. After drying the leaf discs were infested with five L1 larvae. The samples were assessed for mortality, anti-feeding effect, and growth inhibition in comparison to untreated samples 3 days after infestation. Control of Spodoptera littoralis by a test sample is given when at least one of the categories mortality, anti-feedant effect, and growth inhibition is higher than the untreated sample.

[7] = tested on: Myzus persicae (Green Peach Aphid); assay: Example B8: Myzus persicae intrinsic activity, sucrose solution under Parafilm, 24-well; settings: 120 h, test rate of 12 ppm, 5 days after infestation
From the text: Example B8: Myzus persicae (Green Peach Aphid): Intrinsic Activity
Test compounds prepared from 10′000 ppm DMSO stock solutions were applied by pipette into 24-well microtiter plates and mixed with sucrose solution. The plates were closed with a stretched Parafilm. A plastic stencil with 24 holes was placed onto the plate and infested pea seedlings were placed directly on the Parafilm. The infested plate was closed with a gel blotting paper and another plastic stencil and then turned upside down. The samples were assessed for mortality 5 days after infestation.

CC(c1nc(-c2ccccc2)nn1-c1ncccn1)N(C)C(=O)c1cc(C(F)(F)F)cc(C(F)(F)F)c1 (stereo not drawn) [Compound P6, N-methyl-N-[1-(5-phenyl-2-pyrimidin-2-yl-1,2,4-triazol-3-yl)ethyl]-3,5-bis(trifluoromethyl)benzamide]
≥ 80%: mortality at 500 ppm [1] | percent effect (mortality or growth inhibition) at 200 ppm [2]

CC#Cc1nc(C(C)N(C)C(=O)c2cc(C(F)(F)F)cc(C(F)(F)F)c2)n(-c2ncccn2)n1 (stereo not drawn) [Compound P8, N-methyl-N-[1(5-prop-1-ynyl-2-pyrimidin-2-yl-1,2,4-triazol-3-yl)ethyl]-3,5-bis(trifluoromethyl) benzamide]
≥ 80%: percent effect (mortality or growth inhibition) at 200 ppm [3] | percent effect (mortality or growth inhibition) at 200 ppm [2] | percent control (mortality, anti-feedant effect or growth inhibition) at 200 ppm [4]

CC(c1nc(C#N)nn1-c1ncccn1)N(C)C(=O)c1cc(C(F)(F)F)cc(C(F)(F)F)c1 (stereo not drawn) [Compound P9, N-[1-(5-cyano-2-pyrimidin-2-yl-1,2,4-triazol-3-yl)ethyl]-N-methyl-3,5-bis(trifluoromethyl) benzamide]
≥ 80%: mortality at 500 ppm [1] | percent effect (mortality or growth inhibition) at 200 ppm [3]

C=C(F)c1nc(C(C)N(C)C(=O)c2cc(C(F)(F)F)cc(C(F)(F)F)c2)n(-c2ncccn2)n1 (stereo not drawn) [Compound P14, N-[1-[5-(1-fluorovinyl)-2-pyrimidin-2-yl-1,2,4-triazol-3-yl]ethyl]-N-methyl-3,5-bis(trifluoromethyl) benzamide]
≥ 80%: mortality at 50 ppm [5] | percent effect (mortality or growth inhibition) at 200 ppm [3] | percent effect (mortality or growth inhibition) at 200 ppm [2] | percent control (mortality, anti-feedant effect or growth inhibition) at 200 ppm [4]

CC(c1nc(S(=O)(=O)C(F)(F)F)nn1-c1ncccn1)N(C)C(=O)c1cc(C(F)(F)F)cc(C(F)(F)F)c1 (stereo not drawn) [Compound P19, N-methyl-N-[1-[2-pyrimidin-2-yl-5-(trifluoromethylsulfonyl)-1,2,4-triazol-3-yl]ethyl]-3,5-bis(trifluoromethyl)benzamide]
≥ 80%: percent effect (mortality or growth inhibition) at 200 ppm [2] | percent control (mortality, anti-feedant effect or growth inhibition) at 200 ppm [4]

CC(c1nc(SC(F)(F)F)nn1-c1ncccn1)N(C)C(=O)c1cc(C(F)(F)F)cc(C(F)(F)F)c1 (stereo not drawn) [Compound P20, N-methyl-N-[1-[2-pyrimidin-2-yl-5-(trifluoromethylsulfanyl)-1,2,4-triazol-3-yl]ethyl]-3,5-bis(trifluoromethyl)benzamide]
≥ 80%: percent control (mortality, anti-feedant effect or growth inhibition) at 200 ppm [6] | mortality at 500 ppm [1] | percent effect (mortality or growth inhibition) at 200 ppm [2]

C[C@H](NC(=O)c1cc(C(F)(F)F)cc(C(F)(F)F)c1)c1nc(OC(F)(F)F)nn1-c1ncccn1 [Compound P23, N-[(1S)-1-[2-pyrimidin-2-yl-5-(trifluoromethoxy)-1,2,4-triazol-3-yl]ethyl]-3,5-bis(trifluoromethyl)benzamide]
≥ 80%: percent control (mortality, anti-feedant effect or growth inhibition) at 200 ppm [6] | percent effect (mortality or growth inhibition) at 200 ppm [3] | percent effect (mortality or growth inhibition) at 200 ppm [2]

CC(c1nc(Br)nn1-c1ccccn1)N(C)C(=O)c1cc(C(F)(F)F)cc(C(F)(F)F)c1 (stereo not drawn) [Compound P24, N-[1-[5-bromo-2-(2-pyridyl)-1,2,4-triazol-3-yl]ethyl]-N-methyl-3,5-bis(trifluoromethyl) benzamide]
≥ 80%: percent control (mortality, anti-feedant effect or growth inhibition) at 200 ppm [6] | mortality at 500 ppm [1] | percent effect (mortality or growth inhibition) at 200 ppm [3] | percent effect (mortality or growth inhibition) at 200 ppm [2]

CC(NC(=O)c1cc(C(F)(F)F)cc(C(F)(F)F)c1)c1nc(OCC(F)(F)F)nn1-c1ncccn1 (stereo not drawn) [Compound P27, N-[1-[2-pyrimidin-2-yl-5-(2,2,2-trifluoroethoxy)-1,2,4-triazol-3-yl]ethyl]-3,5-bis(trifluoromethyl) benzamide]
≥ 80%: percent control (mortality, anti-feedant effect or growth inhibition) at 200 ppm [6] | percent effect (mortality or growth inhibition) at 200 ppm [3] | percent effect (mortality or growth inhibition) at 200 ppm [2] | percent control (mortality, anti-feedant effect or growth inhibition) at 200 ppm [4]

CC(NC(=O)c1cc(Br)cc(C(F)(F)F)c1)c1nc(Br)nn1-c1ncccn1 (stereo not drawn) [Compound P31, 3-bromo-N-[1-(5-bromo-2-pyrimidin-2-yl-1,2,4-triazol-3-yl)ethyl]-5-(trifluoromethyl) benzamide]
≥ 80%: percent control (mortality, anti-feedant effect or growth inhibition) at 200 ppm [6] | mortality at 500 ppm [1] | percent effect (mortality or growth inhibition) at 200 ppm [3] | mortality at 12 ppm [7] | percent effect (mortality or growth inhibition) at 200 ppm [2] | percent control (mortality, anti-feedant effect or growth inhibition) at 200 ppm [4]

CC(NC(=O)c1cc(C(F)(F)F)cc(C(F)(F)F)c1)c1nc(Cl)nn1-c1ncccn1 (stereo not drawn) [Compound P34, N-[1-(5-chloro-2-pyrimidin-2-yl-1,2,4-triazol-3-yl)ethyl]-3,5-bis(trifluoromethyl) benzamide]
≥ 80%: percent control (mortality, anti-feedant effect or growth inhibition) at 200 ppm [6] | percent effect (mortality or growth inhibition) at 200 ppm [3] | mortality at 12 ppm [7] | percent effect (mortality or growth inhibition) at 200 ppm [2] | percent control (mortality, anti-feedant effect or growth inhibition) at 200 ppm [4]

CC(=O)c1nc(C(C)NC(=O)c2cc(C(F)(F)F)cc(C(F)(F)F)c2)n(-c2ncccn2)n1 (stereo not drawn) [Compound P35, N-[1-(5-acetyl-2-pyrimidin-2-yl-1,2,4-triazol-3-yl)ethyl]-3,5-bis(trifluoromethyl) benzamide]
≥ 80%: percent control (mortality, anti-feedant effect or growth inhibition) at 200 ppm [6] | percent effect (mortality or growth inhibition) at 200 ppm [3] | percent effect (mortality or growth inhibition) at 200 ppm [2] | percent control (mortality, anti-feedant effect or growth inhibition) at 200 ppm [4]
